Tests used:
Format in all cases: functional, cell-based
[1] = target: T1, Muscarinic acetylcholine receptor M5 (Homo sapiens, UniProt P08912); experiment: Negative allosteric modulation of human muscarinic acetylcholine receptor M5 expressed in CHO cells assessed as inhibition of acetylcholine-induced calcium mobilization incubated for 150 secs prior to acetylcholine induction by Fluo-4 AM staining-based fluorescence assay
T1 sequence (P08912 whole entry): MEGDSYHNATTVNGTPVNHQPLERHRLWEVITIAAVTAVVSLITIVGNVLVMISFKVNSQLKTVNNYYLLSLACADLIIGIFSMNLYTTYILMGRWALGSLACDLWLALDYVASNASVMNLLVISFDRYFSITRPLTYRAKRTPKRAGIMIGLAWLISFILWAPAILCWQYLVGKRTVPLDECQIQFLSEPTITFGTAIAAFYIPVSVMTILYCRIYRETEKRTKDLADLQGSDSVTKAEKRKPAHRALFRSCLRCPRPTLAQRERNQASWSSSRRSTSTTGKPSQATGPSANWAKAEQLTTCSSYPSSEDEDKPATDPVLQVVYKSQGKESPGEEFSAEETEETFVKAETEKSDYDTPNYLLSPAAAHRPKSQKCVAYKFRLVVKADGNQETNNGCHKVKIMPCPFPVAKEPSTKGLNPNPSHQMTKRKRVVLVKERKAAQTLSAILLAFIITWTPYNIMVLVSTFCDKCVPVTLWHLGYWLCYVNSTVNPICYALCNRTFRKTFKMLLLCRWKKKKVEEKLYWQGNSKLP

[2] = target: T2, Muscarinic acetylcholine receptor M5 (Homo sapiens) (UniProt P08912); experiment: Negative allosteric modulation of human muscarinic acetylcholine receptor M5 expressed in CHO cells assessed as reduction of acetylcholine-induced calcium mobilization at 10 uM incubated for 150 secs prior to acetylcholine induction by Fluo-4 AM staining-based fluorescence assay relative to control; design: scale not given: the % may be the effect or the level left
T2 sequence (whole entry): T1 sequence (P08912 whole entry)

[3] = target: T3, Muscarinic acetylcholine receptor M2 (Homo sapiens, UniProt P08172); experiment: Negative allosteric modulation of human muscarinic acetylcholine receptor M2 expressed in CHO cells assessed as inhibition of acetylcholine-induced calcium mobilization incubated for 150 secs prior to acetylcholine induction by Fluo-4 AM staining-based fluorescence assay
T3 sequence (P08172 whole entry): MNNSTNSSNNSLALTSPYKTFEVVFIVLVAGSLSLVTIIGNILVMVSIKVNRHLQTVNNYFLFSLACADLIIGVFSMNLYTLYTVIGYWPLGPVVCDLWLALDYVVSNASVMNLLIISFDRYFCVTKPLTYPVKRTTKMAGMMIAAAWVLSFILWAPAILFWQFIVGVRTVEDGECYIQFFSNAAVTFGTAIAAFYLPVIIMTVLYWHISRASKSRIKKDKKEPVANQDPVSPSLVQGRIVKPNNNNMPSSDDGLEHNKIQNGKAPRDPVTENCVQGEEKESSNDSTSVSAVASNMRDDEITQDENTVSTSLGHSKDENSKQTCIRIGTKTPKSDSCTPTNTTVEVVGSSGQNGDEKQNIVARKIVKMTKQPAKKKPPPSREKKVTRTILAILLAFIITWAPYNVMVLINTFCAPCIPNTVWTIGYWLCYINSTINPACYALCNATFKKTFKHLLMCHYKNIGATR

[4] = target: Muscarinic acetylcholine receptor M3 (Homo sapiens, UniProt P20309); experiment: Negative allosteric modulation of human muscarinic acetylcholine receptor M3 expressed in CHO cells assessed as inhibition of acetylcholine-induced calcium mobilization incubated for 150 secs prior to acetylcholine induction by Fluo-4 AM staining-based fluorescence assay
[5] = target: T4, Muscarinic acetylcholine receptor M1 (Homo sapiens, UniProt P11229); experiment: Negative allosteric modulation of human muscarinic acetylcholine receptor M1 expressed in CHO cells assessed as inhibition of acetylcholine-induced calcium mobilization incubated for 150 secs prior to acetylcholine induction by Fluo-4 AM staining-based fluorescence assay
T4 sequence (P11229 whole entry): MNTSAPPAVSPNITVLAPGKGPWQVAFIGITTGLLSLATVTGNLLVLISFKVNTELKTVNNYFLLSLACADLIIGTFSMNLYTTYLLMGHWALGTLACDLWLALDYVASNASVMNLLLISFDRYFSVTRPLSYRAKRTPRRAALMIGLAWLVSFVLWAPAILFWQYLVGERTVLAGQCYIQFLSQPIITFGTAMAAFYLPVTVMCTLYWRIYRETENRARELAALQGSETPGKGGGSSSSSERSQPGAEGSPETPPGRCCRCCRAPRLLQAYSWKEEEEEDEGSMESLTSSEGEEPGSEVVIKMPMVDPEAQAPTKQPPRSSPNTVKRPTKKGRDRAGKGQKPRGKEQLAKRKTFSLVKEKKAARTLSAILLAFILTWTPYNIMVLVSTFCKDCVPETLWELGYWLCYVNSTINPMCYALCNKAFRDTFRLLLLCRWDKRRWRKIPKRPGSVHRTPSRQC

[6] = target: T5, Muscarinic acetylcholine receptor M5 (Rattus norvegicus, UniProt P08911); experiment: Negative allosteric modulation of rat muscarinic acetylcholine receptor M5 expressed in CHO cells assessed as inhibition of acetylcholine-induced calcium mobilization incubated for 150 secs prior to acetylcholine induction by Fluo-4 AM staining-based fluorescence assay
T5 sequence (P08911 whole entry): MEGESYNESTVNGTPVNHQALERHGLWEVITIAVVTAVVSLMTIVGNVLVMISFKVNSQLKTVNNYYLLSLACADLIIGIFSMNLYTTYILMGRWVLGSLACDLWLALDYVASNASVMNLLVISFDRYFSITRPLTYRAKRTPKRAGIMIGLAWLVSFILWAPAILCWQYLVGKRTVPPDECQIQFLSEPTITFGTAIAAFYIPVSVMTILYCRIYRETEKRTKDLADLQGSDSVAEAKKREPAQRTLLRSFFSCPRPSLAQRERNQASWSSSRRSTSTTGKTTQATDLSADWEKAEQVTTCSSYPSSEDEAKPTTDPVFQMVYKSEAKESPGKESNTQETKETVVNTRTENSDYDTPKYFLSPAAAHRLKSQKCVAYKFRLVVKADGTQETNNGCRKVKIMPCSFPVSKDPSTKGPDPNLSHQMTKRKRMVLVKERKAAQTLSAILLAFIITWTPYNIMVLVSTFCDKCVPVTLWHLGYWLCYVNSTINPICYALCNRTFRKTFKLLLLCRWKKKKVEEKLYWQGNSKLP

[7] = target: T6, Muscarinic acetylcholine receptor M4 (Homo sapiens, UniProt P08173); experiment: Negative allosteric modulation of human muscarinic acetylcholine receptor M4 expressed in CHO cells assessed as inhibition of acetylcholine-induced calcium mobilization incubated for 150 secs prior to acetylcholine induction by Fluo-4 AM staining-based fluorescence assay
T6 sequence (P08173 whole entry): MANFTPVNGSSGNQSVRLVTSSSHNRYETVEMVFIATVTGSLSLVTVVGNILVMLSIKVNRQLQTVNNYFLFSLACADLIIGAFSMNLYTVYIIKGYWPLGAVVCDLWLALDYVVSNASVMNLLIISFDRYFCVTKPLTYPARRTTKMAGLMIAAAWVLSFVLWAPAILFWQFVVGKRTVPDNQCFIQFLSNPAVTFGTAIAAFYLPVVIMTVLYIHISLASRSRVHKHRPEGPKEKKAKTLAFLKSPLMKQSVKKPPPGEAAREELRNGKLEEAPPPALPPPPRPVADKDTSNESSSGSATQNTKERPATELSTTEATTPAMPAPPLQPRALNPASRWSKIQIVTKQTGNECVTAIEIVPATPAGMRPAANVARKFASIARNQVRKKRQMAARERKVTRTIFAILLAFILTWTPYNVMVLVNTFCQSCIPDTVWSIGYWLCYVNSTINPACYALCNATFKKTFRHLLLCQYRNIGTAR

Chain of Muscarinic acetylcholine receptor M3 (P20309 whole entry): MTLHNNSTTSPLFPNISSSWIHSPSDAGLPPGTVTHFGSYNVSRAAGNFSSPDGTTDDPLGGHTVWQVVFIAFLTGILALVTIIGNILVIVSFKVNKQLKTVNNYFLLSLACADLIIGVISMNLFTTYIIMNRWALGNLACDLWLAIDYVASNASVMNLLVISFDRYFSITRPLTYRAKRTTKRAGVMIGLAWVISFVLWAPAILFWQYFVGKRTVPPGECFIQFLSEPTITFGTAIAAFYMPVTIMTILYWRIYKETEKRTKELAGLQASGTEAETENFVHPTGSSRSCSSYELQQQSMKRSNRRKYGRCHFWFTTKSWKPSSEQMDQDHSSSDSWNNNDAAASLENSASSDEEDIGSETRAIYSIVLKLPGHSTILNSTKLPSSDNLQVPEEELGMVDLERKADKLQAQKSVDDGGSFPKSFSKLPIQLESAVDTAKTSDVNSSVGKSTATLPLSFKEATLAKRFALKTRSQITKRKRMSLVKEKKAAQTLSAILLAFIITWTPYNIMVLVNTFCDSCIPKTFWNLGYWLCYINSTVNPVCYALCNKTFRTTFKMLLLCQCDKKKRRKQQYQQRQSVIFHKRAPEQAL

Compound	IC50 [1]	Activity [2]	other results
O=C(c1cc(Cl)cc(Cl)c1)N1CCN2C(=O)c3ccccc3C12c1ccccc1 (stereo unspecified)	5.75 µM	0%	
O=C(c1ccc(OC(F)(F)F)cc1)N1CCN2C(=O)c3ccccc3C12c1ccc(Cl)cc1 (stereo unspecified)	2.3 µM	-5.3%	
Cc1ccc(C(=O)N2CCN3C(=O)c4ccccc4C23c2ccc(C)cc2)cc1 (stereo unspecified)	> 10 µM		
Cc1ccc(C23c4ccccc4C(=O)N2CCN3C(=O)c2ccc(F)c(F)c2)cc1 (stereo unspecified)	2.6 µM	-6.8%	
O=C(c1cc(F)cc(F)c1)N1CCN2C(=O)c3ccccc3C12c1ccc(F)cc1 (stereo unspecified)	> 10 µM		
O=C(c1ccc(F)c(F)c1)N1CCN2C(=O)c3ccccc3C12c1ccc(F)cc1 (stereo unspecified)	> 10 µM		
Cc1ccc(C23c4ccccc4C(=O)N2CCN3C(=O)c2cc(F)cc(F)c2)cc1 (stereo unspecified)	2.3 µM	-1.1%	
O=C(c1cc(F)cc(F)c1)N1CCN2C(=O)c3ccccc3C12c1ccc(Cl)cc1 (stereo unspecified)	1 µM	2.8%	
O=C(c1cc(F)cc(F)c1)N1CCN2C(=O)c3ccccc3C12c1ccccc1 (stereo unspecified)	3.8 µM	-2.2%	
Cc1ccc(C(=O)N2CCN3C(=O)c4ccccc4C23c2ccc(F)cc2)cc1 (stereo unspecified)	> 10 µM		
O=C(c1ccc(F)c(F)c1)N1CCN2C(=O)c3ccccc3C12c1ccc(Cl)cc1 (racemic)		0.1%	IC50 [3]: > 30 µM; IC50 [4]: > 30 µM; IC50 [5]: > 30 µM; IC50 [7]: > 30 µM
Cc1ccc(C(=O)N2CCN3C(=O)c4ccccc4C23c2ccc(Cl)cc2)cc1 (stereo unspecified)	2.6 µM	0.1%	
O=C(c1cccc(C(F)(F)F)c1)N1CCN2C(=O)c3ccccc3C12c1ccc(Cl)cc1 (stereo unspecified)	4.9 µM	-7.2%	
O=C(c1cccc(C(F)(F)F)c1)N1CCN2C(=O)c3ccccc3C12c1ccc(F)cc1 (stereo unspecified)	2.1 µM	-2.4%	
Cc1ccc(C23c4ccccc4C(=O)N2CCN3C(=O)c2cccc(C(F)(F)F)c2)cc1 (stereo unspecified)	> 10 µM		

More lines, main results first:

IC50 [1]	Activity [2]	Compound	other results
4.47 µM	0.2%	O=C(c1ccc(OC(F)(F)F)cc1)N1CCN2C(=O)c3ccccc3C12c1ccccc1 (stereo unspecified)	
> 10 µM		O=C(c1ccc(OC(F)(F)F)cc1)N1CCN2C(=O)c3ccccc3C12c1ccc(F)cc1 (stereo unspecified)	
3.49 µM	41%	O=C(c1ccc(F)cc1)N1CCN2C(=O)c3ccccc3C12c1ccccc1 (stereo unspecified)	IC50 [3]: > 30 µM; IC50 [4]: > 30 µM; IC50 [5]: > 30 µM; IC50 [6]: 5.67 µM; IC50 [7]: > 30 µM
1.95 µM	-2.4%	O=C(c1ccc(C(F)(F)F)cc1)N1CCN2C(=O)c3ccccc3C12c1ccccc1 (stereo unspecified)	
3 µM	-9.2%	O=C(c1ccc(SC(F)(F)F)cc1)N1CCN2C(=O)c3ccccc3C12c1ccc(Cl)cc1 (stereo unspecified)	
1.3 µM	-0.2%	O=C(c1ccc(SC(F)(F)F)cc1)N1CCN2C(=O)c3ccccc3C12c1ccc(F)cc1 (stereo unspecified)	
3.02 µM	-0.7%	O=C(c1cccc(C(F)(F)F)c1)N1CCN2C(=O)c3ccccc3C12c1ccccc1 (stereo unspecified)	
3.5 µM	-0.2%	Cc1ccc(C23c4ccccc4C(=O)N2CCN3C(=O)c2ccc(OC(F)(F)F)cc2)cc1 (stereo unspecified)	
> 10 µM		Cc1ccc(C23c4ccccc4C(=O)N2CCN3C(=O)c2ccc(C(F)(F)F)cc2)cc1 (stereo unspecified)	
1.38 µM	0.5%	O=C(c1ccc(SC(F)(F)F)cc1)N1CCN2C(=O)c3ccccc3C12c1ccccc1 (stereo unspecified)	
4.1 µM	4.1%	Cc1ccc(C23c4ccccc4C(=O)N2CCN3C(=O)c2ccc(SC(F)(F)F)cc2)cc1 (stereo unspecified)	
2 µM	0.7%	O=C(c1ccc(C(F)(F)F)cc1)N1CCN2C(=O)c3ccccc3C12c1ccc(Cl)cc1 (stereo unspecified)	
> 10 µM		O=C(c1ccc(C(F)(F)F)cc1)N1CCN2C(=O)c3ccccc3C12c1ccc(F)cc1 (stereo unspecified)	
